Data set [1] in a line: Solubility of esters in oils (solvent added in increments until a room temperature solubility is obtained). The settings on record: for Solubility Limit / solubility: castor oil, room temperature; for solubility: oil or lipid, thermodynamic from solid, read-out: Solubility Limit. It counts as physicochemical. Here is the method:
About 150 mg samples of each drug substance in Table are placed in about 300 mg of a test solvent in a test tube. The samples are swirled and gently heated with a warm water bath. Additional solvent is added in about 100 mg increments until solubility is reached. The samples are cooled overnight and if precipitation is observed, then more solvent is again added in portions until a room temperature solubility is obtained. […] Ganaxolone enanthate is a liquid and appeared miscible in the oils tested.

In another data set the test system is migraine. To be noted: phase 2 clinical trial for migraine; cited from earlier work.
The conditions of data set [2]: post-oral administration; cited from earlier work.

Converted amounts (≈) assume the structure as drawn.

The solubility is the dissolved amount per volume that the medium holds.

As for `CCCCCCC(=O)OC1(C)CCC2(C)C(CCC3C2CCC2(C)C(C(C)=O)CCC32)C1` (stereo not shown) [Ganaxalone Enanthate], the “Miscibility in the oils tested” value in data set [1] (oils tested, substance is a liquid) was “miscible”.

On to `CC(=O)[C@H]1CC[C@H]2[C@@H]3CC[C@H]4C[C@H](O)CC[C@]4(C)[C@H]3CC[C@]12C` [Allopregnanolone, 5α-pregnan-3α-ol-20-one], for which, in data set [1], the “Solubility Limit” value is recorded as < 1 % w/w and the solubility was < 10000 µg/mL.

Take `CC(=O)[C@H]1CC[C@H]2[C@@H]3CC[C@H]4C[C@](C)(O)CC[C@]4(C)[C@H]3CC[C@]12C` [Ganaxalone, 3a-hydroxy-3-methyl-5a-pregnan-20-one]: in the data set with migraine, the “benefit on time to pain relief” value is reported as “failed to show benefit”. Moreover, the “drug recovered in feces” value in data set [2] was ~80%. Also, in data set [1], the “Solubility Limit” value is reported as ~1 % w/w and the solubility is ~10000 µg/mL (≈ 30.1 mM).

The values above are taken from patent US20210363173A1, “NEUROSTERIOD DERIVATIVES AND USES THEREOF” (ACERUS BIOPHARMA INC., priority 2018, published 2021).
